Experimental data as given in patent publication US20250161419A1, “SERPIN PEPTIDES AND METHODS OF USING THE SAME” (SERPIN PHARMA, LLC, priority 2022, published 2025).

Test system: phospho-ERK1/2
Experiment: Cell signaling analysis in PC12 cells, immunoblot of phospho-ERK1/2
Assay type: cell-based, rat
Procedure: Cell signaling analysis: Rat PC12 cells were purchased from ATCC (CRL-1721). PC12 cells were maintained in high glucose DMEM (Gibco, USA) containing 10% heat-inactivated FBS (Gibco, USA), 5% HyClone heat-inactivated horse serum (Cytiva, USA), penicillin (100 units/ml) and streptomycin ([…]) in 6-well plates that were pre-coated with 0.01 mg/ml type IV collagen (Sigma-Aldrich, St. Louis, MO, USA). Cells were transferred to serum-free medium (SFM) 4 h prior to adding effectors, and then treated with SP163M (2.4, 24 or 240 nM); EI-tPA (12 nM), NGF (0.36 nM), or vehicle (PBS) for 10 min. In some cases, cells were pre-incubated with the competitive antagonist of LRP1, GST-RAP (150 nM) for 15 min or electroporated using the Rat Neuron Nucleofector Amaxa Kit (Lonza Biosciences) and incubated with siRNA to silence LRP1 expression (siLRP1; M-094191-01-0010, Dharmacon) for 48 h. Control cells were transfected with non-targeting control (NTC) siRNA (NTC; D-001810-10-05, Dharmacon). Cells were rinsed with ice-cold PBS and proteins were extracted in RIPA buffer (20 mM sodium phosphate, 150 mM NaCl, pH 7.4, 1% Triton X-100, 0.5% sodium deoxycholate, 0.1% SDS) supplemented with protease and phosphatase inhibitors (Roche Diagnostics, USA). After 30 min on ice, lysates were centrifuged at 15000×g for 5 min, supernatant collected and stored at −20° C. Equal amounts of protein from cell lysates (20 μg), as determined by BCA Protein Assay (ThermoFisher Scientific, Waltham, MA, USA), were subjected to 10% SDS-PAGE and electro-transferred to nitrocellulose membranes. The membranes were blocked with 5% nonfat dried milk and then incubated with primary anti-phospho-AKT (Cell Signaling Technology, Danvers, MA, USA; cat #9271S; 1:1000), anti-phospho-ERK1/2 (Cell Signaling Technology, Danvers, MA, USA; cat #9101S; 1:1000), anti-LRP1 (Cell Signaling Technology, Danvers, MA, USA; cat #64099S; 1:1000) or anti total-ERK1/2 (Cell Signaling Technology, Danvers, MA, USA; cat #91012S; 1:1000). Immunoblots were developed using Radiance, Radiance Q, and Radiance Plus chemiluminescent substrates and imaged using a BioRad ChemiDoc Imaging System (Bio-Rad, Hercules, CA, USA).

VKFNKPFVFLMIEQNTK (SP16 peptide core sequence including the LRP1 binding site; listed as Homo sapiens)
activation of ERK1/2 over time (240 nM, 0-30 min): robustly activated ERK1/2 from 5 to 30 min
lowest concentration that activated phospho-ERK1/2 (10 min, 0-240 nM): 24 nM
activation of ERK1/2 in cells transfected with NTC siRNA (48 h after transfection): ERK1/2 was robustly activated
